Results reported in the NIST ThermoML archive (doi:10.1016/j.jct.2016.03.021).

Experiment: wn = mass fraction of the nth substance listed
Settings: Liquid; for mass density: Vibrating tube method

CN(CCO)CCO [N-methyldiethanolamine] + O
mass density [kg/m3]
Settings	w1 = 0.1	w1 = 0.2002	w1 = 0.3	w1 = 0.4
333.15 K, 60000 kPa	–	–	–	1035
333.15 K, 70000 kPa	1017.9	1024.4	1031.5	1038.4
333.15 K, 80000 kPa	1021.6	1027.9	1034.9	1041.6
333.15 K, 90000 kPa	1025.1	1031.3	1038.1	1044.9
333.15 K, 100000 kPa	1028.5	1034.7	1041.6	1048.2
333.15 K, 110000 kPa	1031.9	1038	1044.6	1051.3
333.15 K, 120000 kPa	1035.4	1041.4	1047.9	1054.5
333.15 K, 130000 kPa	1038.7	1044.5	1051	1057.5
333.15 K, 140000 kPa	1042	1047.7	1054.2	1060.6
353.15 K, 100 kPa	978.6	985.3	992	998.1
353.15 K, 500 kPa	978.7	985.3	992	998.2
353.15 K, 1000 kPa	978.9	985.5	992.2	998.4
353.15 K, 2000 kPa	979.3	985.9	992.7	998.8
353.15 K, 5000 kPa	980.6	987.2	993.9	1000.1
353.15 K, 10000 kPa	982.8	989.4	996.1	1002.3
353.15 K, 15000 kPa	984.9	991.5	998.2	1004.4
353.15 K, 20000 kPa	987	993.5	1000.3	1006.5
353.15 K, 30000 kPa	991.2	997.6	1004.3	1010.5
353.15 K, 40000 kPa	995.2	1001.6	1008.1	1014.4
353.15 K, 50000 kPa	999.1	1005.5	1012	1018.2
353.15 K, 60000 kPa	1003.1	1009.3	1015.9	1022
353.15 K, 70000 kPa	1006.9	1012.9	1019.5	1025.6
353.15 K, 80000 kPa	1010.5	1016.6	1023	1029.1
353.15 K, 90000 kPa	1014	1020	1026.4	1032.6
353.15 K, 100000 kPa	1017.7	1023.6	1029.9	1036
353.15 K, 110000 kPa	1021.2	1027	1033.3	1039.3
353.15 K, 120000 kPa	1024.6	1030.4	1036.6	1042.5
353.15 K, 130000 kPa	1028	1033.6	1039.8	1045.8
353.15 K, 140000 kPa	1031.2	1036.8	1042.9	1048.9
373.15 K, 100 kPa	964.4	970.5	976.5	981.9
373.15 K, 500 kPa	964.6	970.7	976.6	982.1
373.15 K, 1000 kPa	964.9	970.9	976.9	982.4
373.15 K, 2000 kPa	965.3	971.4	977.4	982.8
373.15 K, 5000 kPa	966.7	972.8	978.7	984.2
373.15 K, 10000 kPa	969	975	981.1	986.5
373.15 K, 15000 kPa	971.2	977.2	983.4	988.8
373.15 K, 20000 kPa	973.5	979.5	985.6	991.1
373.15 K, 30000 kPa	977.9	983.9	989.8	995.5
373.15 K, 40000 kPa	982.1	988.2	994.1	999.8
373.15 K, 50000 kPa	986.2	992.1	998.1	1003.7
373.15 K, 60000 kPa	990.1	996.1	1002.1	1007.7
373.15 K, 70000 kPa	994.2	1000	1005.9	1011.6
373.15 K, 80000 kPa	998.1	1003.8	1009.8	1015.4
373.15 K, 90000 kPa	1001.8	1007.4	1013.3	1019
373.15 K, 100000 kPa	1005.3	1011.1	1017	1022.6
373.15 K, 110000 kPa	1009	1014.7	1020.5	1026.2
373.15 K, 120000 kPa	1012.6	1018.3	1024	1029.7
373.15 K, 130000 kPa	1016	1021.5	1027.4	1033
373.15 K, 140000 kPa	1019.4	1025	1030.7	1036.3
393.15 K, 100 kPa	948.6	954	959.6	964.2
393.15 K, 500 kPa	949	954.4	959.9	964.7
393.15 K, 1000 kPa	949.2	954.6	960.1	964.8
393.15 K, 2000 kPa	949.6	955.2	960.6	965.4
393.15 K, 5000 kPa	951.1	956.7	962.1	966.9
393.15 K, 10000 kPa	953.6	959.2	964.7	969.5
393.15 K, 15000 kPa	956	961.6	967.1	972
393.15 K, 20000 kPa	958.5	964	969.6	974.5
393.15 K, 30000 kPa	963	968.5	974.2	979.2
393.15 K, 40000 kPa	967.6	973.1	978.7	983.9
393.15 K, 50000 kPa	971.8	977.3	983	988.1
393.15 K, 60000 kPa	976.2	981.7	987.4	992.5
393.15 K, 70000 kPa	980.4	985.9	991.6	996.8
393.15 K, 80000 kPa	984.3	989.8	995.4	1000.8
393.15 K, 90000 kPa	988.3	993.7	999.4	1004.6
393.15 K, 100000 kPa	992.1	997.5	1003.1	1008.5
393.15 K, 110000 kPa	995.9	1001.4	1006.9	1012.3
393.15 K, 120000 kPa	999.6	1005	1010.6	1015.9
393.15 K, 130000 kPa	1003.1	1008.5	1014.1	1019.4
393.15 K, 140000 kPa	1006.7	1012	1017.6	1023

viscosity [mPa·s]
Settings	w1 = 0.1	w1 = 0.2	w1 = 0.2002	w1 = 0.3	w1 = 0.4
333.15 K, 80000 kPa, Falling or rolling sphere viscometry	0.661	–	0.942	1.4	2.134
333.15 K, 100000 kPa, Falling or rolling sphere viscometry	0.672	–	0.967	1.435	2.206
333.15 K, 120000 kPa, Falling or rolling sphere viscometry	0.68	–	0.982	1.468	2.28
353.15 K, 93 kPa, Concentric cylinders viscometry	–	0.6205	–	0.8505	1.186
353.15 K, 100 kPa, Falling or rolling sphere viscometry	–	0.617	0.617	0.854	1.181
353.15 K, 5000 kPa, Falling or rolling sphere viscometry	–	–	0.62	0.862	1.193
353.15 K, 10000 kPa, Falling or rolling sphere viscometry	–	–	0.625	0.869	1.204
353.15 K, 20000 kPa, Falling or rolling sphere viscometry	–	–	0.633	0.881	1.229
353.15 K, 30000 kPa, Falling or rolling sphere viscometry	–	–	0.64	0.894	1.253
353.15 K, 40000 kPa, Falling or rolling sphere viscometry	–	–	0.647	0.907	1.276
353.15 K, 60000 kPa, Falling or rolling sphere viscometry	–	–	0.661	0.932	1.322
353.15 K, 80000 kPa, Falling or rolling sphere viscometry	–	–	0.675	0.959	1.368
353.15 K, 100000 kPa, Falling or rolling sphere viscometry	–	–	0.691	0.997	1.419
353.15 K, 120000 kPa, Falling or rolling sphere viscometry	–	–	0.705	1.018	1.467
